Values after ≈ are worked out from the molar mass of the structure shown.
Conditions: for aqueous solubility: pH 6.8

| Compound | MDR1-MDCK efflux ratio | intrinsic clearance, human liver microsomes [mL/min/kg] | intrinsic clearance, rat liver microsomes [mL/min/kg] | aqueous solubility [µg/mL] | fraction unbound, human plasma | fraction unbound, rat plasma |
| --- | --- | --- | --- | --- | --- | --- |
| COc1cc(OC)cc(C(=O)NCc2noc(-c3ccccc3)n2)c1 | 0.335 | 34.9 | 628 | – | – | – |
| COc1ccc(-c2csc3ncnc(Oc4ccc(C)nc4)c23)cc1 | 0.595 | 78.5 | 320 | 7.81 (≈ 22.4 µM) | – | – |
| Cc1nc(N(C)C)nc(C)c1NC(=O)C1CCCCC1 | 0.656 | 6.25 | 75.4 | 49.3 (≈ 179 µM) | – | – |
| CN(C(=O)CSC(C)(C)C)c1ccccc1C#N | 0.808 | 47.3 | 687 | – | – | – |
| CC(C)(C)c1csc(Cn2ccnc2-c2ccccn2)n1 | – | 122 | 2620 | – | – | – |
| CC(C)(C)Cc1nnc(-c2cnc3onc(C4CCCC4)c3c2)o1 | – | – | – | 3.99 (≈ 12.2 µM) | – | – |
| Cc1nccc(-c2ccc(-c3noc(CN4CCOCC4)n3)cc2)n1 | 0.677 | ≤ 4.74 | 106 | 61 (≈ 181 µM) | – | – |
| CN(Cc1ccccc1)C(=O)c1ccc(-n2cccn2)nc1 | 0.566 | ≤ 4.74 | 4990 | 38.8 (≈ 133 µM) | – | – |
| CN(CC(=O)Nc1cccc(F)c1)C(=O)c1cccc(C#N)c1 | 6.11 | 26.4 | 131 | 56.2 (≈ 181 µM) | – | – |
| O=c1c(-n2ccnn2)c[nH]n1-c1cc(N2CCOCC2)ncn1 | 1.76 | ≤ 4.74 | 45.8 | 30.7 (≈ 97.7 µM) | – | – |
| CCc1cc2c(cc1N1CCC(N3CCOCC3)CC1)C(C)(C)c1[nH]c3cc(C#N)ccc3c1C2=O | 11.8 | 35.8 | 17.8 | 11.7 (≈ 24.2 µM) | – | – |
| O=C(OCc1cc(Cl)ccn1)c1ccc2[nH]c(C(F)F)nc2c1 | 1.37 | 515 | 1520 | 35 (≈ 104 µM) | – | – |
| O=c1[nH]c2ccccc2n1C1CCN(Cc2nc(-c3ccsc3)no2)CC1 | 3.73 | 16.3 | 263 | 5.8 (≈ 15.2 µM) | – | – |
| CC#CC(=O)N[C@H]1CCCN(c2c(F)cc(C(N)=O)c3[nH]c(C)c(C)c23)C1 | 7.25 | 25 | 238 | 10.8 (≈ 29.2 µM) | 0.0146 | 0.00229 |
| Cc1ccc(NC(=O)c2c([O-])n(-c3ccc(C)cc3)n[n+]2Cc2ccccc2)cc1 | 1.02 | – | – | 0.21 (≈ 0.527 µM) | – | – |
| COc1ccc(Cl)cc1N(CC(=O)Nc1ccccc1C(=O)NCc1ccccc1)S(C)(=O)=O | – | 594 | 1370 | – | – | – |
| CCN(C(=O)N1CCC(CC(=O)N2CCN(C)CC2)CC1)C(C)C | 16.2 | 23.9 | 54.7 | 81.3 (≈ 240 µM) | – | – |

| Compound | MDR1-MDCK efflux ratio | intrinsic clearance, human liver microsomes [mL/min/kg] | intrinsic clearance, rat liver microsomes [mL/min/kg] | aqueous solubility [µg/mL] | fraction unbound, human plasma | fraction unbound, rat plasma |
| --- | --- | --- | --- | --- | --- | --- |
| c1cnc(N2CC(c3nc4ccccc4[nH]3)C2)nc1 | 3.96 | 10.1 | 33.5 | 35 (≈ 139 µM) | – | – |
| N#Cc1nncn1CC(=O)Nc1ccc2ccccc2c1 | – | – | – | 22.8 (≈ 82.1 µM) | – | – |
| O=C(CCc1cccs1)Nc1ccc(N2CCCC2)cn1 | – | – | – | 1.18 (≈ 3.91 µM) | – | – |
| CN1CC(=O)N(CCCC(=O)Nc2cccc(C#Cc3cccs3)c2)C1=O | 4.28 | 19.7 | 738 | 43.2 (≈ 113 µM) | – | – |
| COc1cccc(CN(C)c2cc(N3CCCC3)ncn2)n1 | 0.683 | 128 | 4460 | – | – | – |
| N#Cc1cc(-c2n[nH]c(-c3ccncc3)n2)ccn1 | 4.87 | 8.89 | 129 | 14.3 (≈ 57.5 µM) | – | – |
| CN(CC(=O)NC1(C#N)CCCCC1)c1cccc(C#N)c1 | 10.4 | 85.8 | 701 | 20.3 (≈ 68.4 µM) | – | – |
| Cc1nc2cc(-c3nccn3C)nn2c(NCCCN(C)C)c1C | 67.6 | ≤ 4.74 | 601 | – | – | – |
| O=C(Nc1ccccc1)c1scnc1-c1ccccc1 | – | 110 | 1040 | – | – | – |
| NC(=O)C1(Cc2ccc(-c3ccncc3)cc2)CCN(C(=O)Cc2cccc(F)c2)CC1 | – | – | – | 63 (≈ 146 µM) | 0.102 | 0.114 |
| O=C(NCCc1cnn[nH]1)C1Cc2ccccc2C1 | 2.47 | ≤ 4.74 | ≤ 10.7 | – | – | – |
| Clc1cc2c(NC3CCCC3)nnc(-c3ccncc3)c2cc1Cl | 0.729 | – | – | 0.19 (≈ 0.529 µM) | – | – |
| CNC(=O)C1(Cc2ccc(-c3cccnc3)cc2)CCN(Cc2ccc(F)cc2)C1 (centres undefined) | 1.53 | 228 | 756 | – | 0.105 | 0.083 |
| Cc1n[nH]c(C)c1CCC(=O)N1CCOCC1 | 13.5 | ≤ 4.74 | ≤ 10.7 | 25.6 (≈ 108 µM) | – | – |
| CS(=O)(=O)NC[C@H]1CC[C@H](Nc2nc3c(s2)CCSc2ccccc2-3)CC1 | 1.81 | 21.5 | 247 | – | – | – |
| Cc1noc(CCNc2cccc(F)c2C#N)n1 | – | 40.7 | 266 | – | – | – |
| Cc1nc(-c2cccnc2)sc1C(=O)Nc1ccccc1-c1cn2c(CN3CCOCC3)csc2n1 | 3.28 | – | – | 0.65 (≈ 1.26 µM) | – | – |

More lines, now with the values ahead:

| MDR1-MDCK efflux ratio | intrinsic clearance, human liver microsomes [mL/min/kg] | intrinsic clearance, rat liver microsomes [mL/min/kg] | aqueous solubility [µg/mL] | fraction unbound, human plasma | fraction unbound, rat plasma | Compound |
| --- | --- | --- | --- | --- | --- | --- |
| 12.8 | ≤ 4.74 | ≤ 10.7 | 54.6 (≈ 161 µM) | – | – | O=C(Cn1c(-c2ccc(F)cc2)nc2ccccc21)N1CCOCC1 |
| – | 60 | 1840 | – | – | – | O=C(CNC(=O)c1ccccc1Cl)Nc1cccc2c1CCCC2 |
| 0.812 | 10.4 | 263 | – | – | – | COCCc1noc(CN(C)C(=O)c2ccc3c(c2)CCC3)n1 |
| 70.8 | ≤ 4.74 | 16.8 | – | – | – | Cc1cc(C)c2ccc(C(=O)N3CCN(c4nc[nH]n4)CC3)cc2n1 |
| 2.1 | 107 | 1190 | – | – | – | CCCNC(=O)CSc1nc2cc(C)ccc2[nH]1 |
| 8.66 | 113 | 2760 | – | 0.0803 | 0.0818 | CN(Cc1ccccc1)C1(C(=O)N2CCNC(=O)CC2)Cc2ccccc2C1 |
| 24 | ≤ 4.74 | 10.8 | – | – | – | C[C@H](NC(=O)CCC(F)(F)F)C(=O)N[C@@H]1C(=O)N(CCO)c2ncccc2-c2ccccc21 |
| 0.659 | 35.1 | 456 | 43.6 (≈ 135 µM) | – | – | O=C(c1ccccc1-c1ncc(-c2ccccc2F)o1)N1CCC1 |
| 61.4 | 129 | 107 | 48.2 | – | – | CCN1CCN(Cc2ccc(Nc3ncc(F)c(-c4cc(F)c5nc(C)n(C(C)C)c5c4)n3)nc2)CC1.CS(=O)(=O)O |
| – | 68.3 | 760 | 59.6 (≈ 179 µM) | – | – | O=C(CSCCCn1c(=O)[nH]c2ccccc21)N1CCCCC1 |
| 1.3 | 24.6 | 463 | – | – | – | COc1ccccc1C(=O)CSc1nncn1C1CC1 |
| 50.4 | 36.5 | 518 | 51.9 (≈ 158 µM) | – | – | Cc1ncsc1CN1CCCN(c2nc3ccccc3[nH]2)CC1 |
| 0.649 | 29.3 | 217 | 42.4 (≈ 135 µM) | – | – | Cc1ccc(F)cc1NC(=O)c1cnc2onc(C(C)C)c2c1 |
| 0.91 | ≤ 4.74 | 27.5 | 54.9 (≈ 191 µM) | – | – | O=C1CCCN1C(=O)COc1cccc(-c2nnco2)c1 |
| 15.2 | – | – | 0.3 (≈ 0.844 µM) | – | – | Cc1ccc2[nH]c(C3CN(C(=O)Cc4cccc5ccccc45)C3)nc2c1 |
| 0.474 | 780 | 2050 | – | – | – | COC(=O)c1cccc2c1CCCN2C(=O)c1ccccc1 |
| 2.31 | 15 | 501 | – | – | – | CCOCC(=O)Nc1cccc(CN2CCCC2)c1 |
| 0.59 | 22.6 | 79.3 | 52.1 (≈ 134 µM) | – | – | FC(F)(F)COc1ccc(CN2CCc3c(cnn3-c3ccccc3)C2)nn1 |
| 0.792 | 6.88 | 16.3 | 16.2 (≈ 53.2 µM) | – | – | Cc1noc([C@@H]2C[C@H](NC(=O)c3ccc(F)cc3)CN2C)n1 |
| 5.72 | 12.8 | 322 | 42.3 (≈ 132 µM) | – | – | O=C(c1cccc(N2CCNC2=O)c1)N1CCc2ccccc2C1 |
| 22.2 | 8.38 | 57.2 | 59.4 (≈ 216 µM) | – | – | Cc1nccn1-c1ccc(F)cc1CNC(=O)C(C)C |
| 2.51 | ≤ 4.74 | 100 | – | – | – | CC(C)Oc1ccc(C#N)cc1NC1CCN(C)CC1 |
| 8.01 | 32.7 | 238 | 60.8 (≈ 165 µM) | – | – | CC(C)c1nc2c(n1C)CCN(C(=O)c1cccc(C(F)(F)F)c1F)C2 |

— the Biogen ADME set (Fang et al. 2023)
